Reference: publication PMC12514245, “Impaired migration and lung invasion of human melanoma by a novel small molecule targeting the transmembrane domain of death receptor p75^NTR” (EMBO Molecular Medicine, 2025)
Values joined by “and” are separate entries in the source; they are usually repeats but may differ in a detail not shown here. Equal entries are not always repeated.

How the values were obtained:
p75^NTR TMD P253G = molecular target: T1, p75^NTR TMD P253G (Homo sapiens, UniProt P08138, P253G); assay: AraTM assay, P253G mutant p75NTR TMD; format: cell-based; details: for GFP/OD630, p75NTR P253G, Mean: N=3;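 on GFP/OD630, p75NTR P253G, Mean: 100% is GFP/OD630 of wild-type p75NTR TMD without drug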;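 on GFP/OD630, p75NTR P253G, n1-n3: 100% is GFP/OD630 of wild-type p75NTR TMD without drug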
T1 construct: Comparison of wild-type (WT) p75^NTR TMD and I252A, P253G and V254A mutants in the AraTM assay; expressed in transfected cells; host or cells: E. coli AS19 (LPS-negative)
T1 sequence (P08138 251-272 P253G limits assumed): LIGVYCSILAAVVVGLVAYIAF

p75^NTR TMD V254A = molecular target: T2, p75^NTR TMD V254A (Homo sapiens, UniProt P08138, V254A); assay: AraTM assay, V254A mutant p75NTR TMD; format: cell-based; details: for GFP/OD630, p75NTR V254A, Mean: N=3
T2 construct: Comparison of wild-type (WT) p75^NTR TMD and I252A, P253G and V254A mutants in the AraTM assay; expressed in transfected cells; host or cells: E. coli AS19 (LPS-negative)
T2 sequence (P08138 250-275 V254A): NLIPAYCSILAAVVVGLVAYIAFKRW

A875 melanoma cells (NT) = assay: Cleaved PARP western blot (apoptosis), A875 NT; format: cell-based, human
Protocol: One of the main biological readouts of p75^NTR activity in response to neurotrophins is the induction of caspase-mediated apoptotic cell death (Underwood and Coulson, [2008]; Friedman, [2010]; Ibáñez and Simi, [2012]).
COS7, A875 and WM115 cell lines were cultured under standard conditions in DMEM supplemented with 10% fetal calf serum, 100 units/ml penicillin, […] streptomycin, and 2.5 mM glutamine. All cells were authenticated and tested for mycoplasma contamination. A875-NT (control) and A875 shp75 (knockdown) cell lines were described previously (Goh et al, [2018]).

A875 shp75 cells = assay: Wound healing cell motility assay, A875 shp75; format: cell-based, human; details: for Wound area, Mean: N=3; for Wound area (Fold): A875 shp75, 1uM, 0 h
Protocol: For wound healing assay, cells were grown until confluency and subjected to a wound across the cell mono-layer. Cells were then incubated with serum-free media either with DMSO or a small molecule (with or without 5 µM Q_VD_poH) and imaged at specific time-points. Cell migration is reflected as fold change in wound area over time.

[1] = 5μM Q_VD_poH + 10μM Div17E5, 0 hours
[2] = 5μM Q_VD_poH + 10μM Div17E5, 3 hours
[3] = 5μM Q_VD_poH + 10μM Div17E5, 6 hours
[4] = 5μM Q_VD_poH + 10μM Div17E5, 9 hours
[5] = 5μM Q_VD_poH + 10μM Div17E5, 12 hours
[6] = 5μM Q_VD_poH + 10μM Div17E5, 15 hours
[7] = 5μM Q_VD_poH + 10μM Div17E5, 18 hours
[8] = 5μM Q_VD_poH + 10μM Div17E5, 21 hours
[9] = 5μM Q_VD_poH + 10μM Div17E5, 24 hours

Question: Which results are given for `Oc1ccc(-c2cncc(Nc3ccc(Br)c(Cl)c3)n2)cc1` [Div17E5]?
Answer: effect of Pro253 mutation on compound activity in AraTM assay (p75^NTR TMD P253G): had no effect; GFP/OD630, p75NTR P253G, n1-n3 (p75^NTR TMD P253G; Div17E5 7.5 uM): 62% and 68% and 61%; GFP/OD630, p75NTR P253G, Mean (p75^NTR TMD P253G; Div17E5 7.5 uM): 64%; GFP/OD630, p75NTR P253G, n1-n3 (p75^NTR TMD P253G; Div17E5 15 uM): 61% and 77% and 66%; GFP/OD630, p75NTR P253G, Mean (p75^NTR TMD P253G; Div17E5 15 uM): 68%; GFP/OD630, p75NTR P253G, n1-n3 (p75^NTR TMD P253G; Div17E5 20 uM): 59% and 49% and 56%; GFP/OD630, p75NTR P253G, Mean (p75^NTR TMD P253G; Div17E5 20 uM): 55%; GFP/OD630, p75NTR P253G, n1-n3 (p75^NTR TMD P253G; Div17E5 50 uM): 57% and 56% and 59%; GFP/OD630, p75NTR P253G, Mean (p75^NTR TMD P253G; Div17E5 50 uM): 57%; effect of Val254 mutation on compound activity in AraTM assay (p75^NTR TMD V254A): abolished; GFP/OD630, p75NTR V254A, n1-n3 (p75^NTR TMD V254A; Div17E5 7.5 uM): 87% and 97% and 91%; GFP/OD630, p75NTR V254A, Mean (p75^NTR TMD V254A; Div17E5 7.5 uM): 92%; GFP/OD630, p75NTR V254A, n1-n3 (p75^NTR TMD V254A; Div17E5 15 uM): 86% and 95% and 96%; GFP/OD630, p75NTR V254A, Mean (p75^NTR TMD V254A; Div17E5 15 uM): 92%; GFP/OD630, p75NTR V254A, n1-n3 (p75^NTR TMD V254A; Div17E5 20 uM): 89% and 96% and 99%; GFP/OD630, p75NTR V254A, Mean (p75^NTR TMD V254A; Div17E5 20 uM): 95%; GFP/OD630, p75NTR V254A, n1-n3 (p75^NTR TMD V254A; Div17E5 50 uM): 95% and 85% and 98%; GFP/OD630, p75NTR V254A, Mean (p75^NTR TMD V254A; Div17E5 50 uM): 93%; apoptosis (cleavage of PARP) (A875 melanoma cells (NT)): induced apoptosis; Cleaved PARP normalized to DMSO, individual replicates (A875 melanoma cells (NT); 0.5uM): 2.699 and 3.180 and 5.109; Cleaved PARP/actin, individual replicates (A875 melanoma cells (NT); 0.5uM): 0.023 and 0.026 and 0.037; Cleaved PARP normalized to DMSO, Average (A875 melanoma cells (NT); 0.5μM): 3.662; Cleaved PARP normalized to DMSO, individual replicates (A875 melanoma cells (NT); 1uM): 10.573 and 9.243 and 5.315; Cleaved PARP/actin, individual replicates (A875 melanoma cells (NT); 1uM): 0.078 and 0.043 and 0.077; Cleaved PARP normalized to DMSO, Average (A875 melanoma cells (NT); 1μM): 8.377; Cleaved PARP normalized to DMSO, individual replicates (A875 melanoma cells (NT); 2uM): 25.774 and 23.617 and 17.703; Cleaved PARP/actin, individual replicates (A875 melanoma cells (NT); 2uM): 0.187 and 0.200 and 0.142; Cleaved PARP normalized to DMSO, Average (A875 melanoma cells (NT); 2μM): 22.365; Cleaved PARP normalized to DMSO, individual replicates (A875 melanoma cells (NT); 5uM): 31.874 and 36.234 and 27.415; Cleaved PARP/actin, individual replicates (A875 melanoma cells (NT); 5uM): 0.231 and 0.306 and 0.220; Cleaved PARP normalized to DMSO, Average (A875 melanoma cells (NT); 5μM): 31.841; wound closure (A875 shp75 cells): did not significantly affect wound closure; Wound area, n1-n3 (A875 shp75 cells; [1]): 0.989 Fold and 0.886 Fold and 1.125 Fold; Wound area, Mean (A875 shp75 cells; [1]): 1.000 Fold; Wound area, n1-n3 (A875 shp75 cells; [2]): 0.947 Fold and 0.979 Fold and 1.007 Fold; Wound area, Mean (A875 shp75 cells; [2]): 0.978 Fold; Wound area, n1-n3 (A875 shp75 cells; [3]): 0.959 Fold and 0.975 Fold and 0.953 Fold; Wound area, Mean (A875 shp75 cells; [3]): 0.962 Fold; Wound area, n1-n3 (A875 shp75 cells; [4]): 0.955 Fold and 0.965 Fold and 0.942 Fold; Wound area, Mean (A875 shp75 cells; [4]): 0.954 Fold; Wound area, n1-n3 (A875 shp75 cells; [5]): 0.935 Fold and 0.950 Fold and 0.940 Fold; Wound area, Mean (A875 shp75 cells; [5]): 0.941 Fold; Wound area, n1-n3 (A875 shp75 cells; [6]): 0.901 Fold and 0.902 Fold and 0.903 Fold; Wound area, Mean (A875 shp75 cells; [6]): 0.902 Fold; Wound area, n1-n3 (A875 shp75 cells; [7]): 0.849 Fold and 0.823 Fold; Wound area, Mean (A875 shp75 cells; [7]): 0.840 Fold; Wound area, n1-n3 (A875 shp75 cells; [8]): 0.828 Fold and 0.801 Fold and 0.783 Fold; Wound area, Mean (A875 shp75 cells; [8]): 0.804 Fold; Wound area, n1-n3 (A875 shp75 cells; [9]): 0.790 Fold and 0.822 Fold and 0.793 Fold; Wound area, Mean (A875 shp75 cells; [9]): 0.801 Fold; Wound area, n1-n3 (A875 shp75 cells; 10μM Div17E5, 0 hours): 1.039 Fold and 1.010 Fold and 0.951 Fold; Wound area, Mean (A875 shp75 cells; 10μM Div17E5, 0 hours): 1.000 Fold; Wound area, n1-n3 (A875 shp75 cells; 10μM Div17E5, 3 hours): 0.987 Fold and 0.961 Fold and 0.970 Fold; Wound area, Mean (A875 shp75 cells; 10μM Div17E5, 3 hours): 0.973 Fold; Wound area, n1-n3 (A875 shp75 cells; 10μM Div17E5, 6 hours): 0.982 Fold and 0.933 Fold and 0.919 Fold; Wound area, Mean (A875 shp75 cells; 10μM Div17E5, 6 hours): 0.945 Fold; Wound area, n1-n3 (A875 shp75 cells; 10μM Div17E5, 9 hours): 0.959 Fold and 0.914 Fold and 0.881 Fold; Wound area, Mean (A875 shp75 cells; 10μM Div17E5, 9 hours): 0.918 Fold; Wound area, n1-n3 (A875 shp75 cells; 10μM Div17E5, 12 hours): 0.961 Fold and 0.889 Fold and 0.887 Fold; Wound area, Mean (A875 shp75 cells; 10μM Div17E5, 12 hours): 0.912 Fold; Wound area, n1-n3 (A875 shp75 cells; 10μM Div17E5, 15 hours): 0.930 Fold and 0.849 Fold and 0.852 Fold; Wound area, Mean (A875 shp75 cells; 10μM Div17E5, 15 hours): 0.877 Fold; Wound area, n1-n3 (A875 shp75 cells; 10μM Div17E5, 18 hours): 0.858 Fold and 0.787 Fold and 0.795 Fold; Wound area, Mean (A875 shp75 cells; 10μM Div17E5, 18 hours): 0.813 Fold; Wound area, n1-n3 (A875 shp75 cells; 10μM Div17E5, 21 hours): 0.855 Fold and 0.772 Fold and 0.767 Fold; Wound area, Mean (A875 shp75 cells; 10μM Div17E5, 21 hours): 0.798 Fold; Wound area, n1-n3 (A875 shp75 cells; 10μM Div17E5, 24 hours): 0.867 Fold and 0.765 Fold and 0.792 Fold; Wound area, Mean (A875 shp75 cells; 10μM Div17E5, 24 hours): 0.808 Fold; Wound area (Fold) (A875 shp75 cells; Mean): 1.000 Fold; Wound area (Fold) (A875 shp75 cells; n1): 0.980 Fold
